Test results: the NIST ThermoML archive (doi:10.1016/j.fluid.2008.07.012)
± gives the expanded uncertainty stated by the source.

Details: Crystal; DTA

Normal melting temperature [°C] | SMILES
150 ± 1 | CC(C)CCC[C@@H](C)[C@H]1CC[C@H]2[C@@H]3CC=C4C[C@@H](OC(=O)c5ccccc5)CC[C@]4(C)[C@H]3CC[C@]12C [3β-benzoyloxycholest-5-ene]
99 ± 1 | CCCC(=O)O[C@H]1CC[C@@]2(C)C(=CC[C@H]3[C@@H]4CC[C@H]([C@H](C)CCCC(C)C)[C@@]4(C)CC[C@@H]32)C1 [3β-butanoyloxycholest-5-ene]
